Experimental data: ChEMBL document CHEMBL4024712, “Synthesis, stability and mechanistic studies of potent anticryptococcal hexapeptides” (Eur J Med Chem, 2017); call rule not given here
Values after ≈ are worked out from the molar mass of the structure shown. Non-standard residues stand in square brackets, D forms with d. Residues, ends and D or L forms follow the SMILES beside them. His(τ-Bzl) = N[C@@H](Cc1cn(Cc2ccccc2)cn1)C(=O)O; Phe(4-NH2) = Nc1ccc(C[C@H](N)C(=O)O)cc1; Phe(4-Me) = Cc1ccc(C[C@H](N)C(=O)O)cc1; 1Nal = N[C@@H](Cc1cccc2ccccc12)C(=O)O; Cha = N[C@@H](CC1CCCCC1)C(=O)O; dOrn = NCCC[C@@H](N)C(=O)O; Orn = NCCC[C@H](N)C(=O)O; Dab = NCC[C@H](N)C(=O)O

Experiments:
[1] = tested on: Pseudomonas aeruginosa; experiment: Anti-bacterial activity against Pseudomonas aeruginosa ATCC 27853 by CLSI method; format: functional
[2] = tested on: Staphylococcus aureus; experiment: Bactericidal activity against methicillin-resistant Staphylococcus aureus ATCC 33591 by CLSI method; format: functional
[3] = tested on: Mycobacterium intracellulare; experiment: Anti-bacterial activity against Mycobacterium intracellulare ATCC 23068 after 68 to 72 hrs by Alamar blue assay; format: functional, cell-based
[4] = tested on: Aspergillus fumigatus; experiment: Antifungal activity against Aspergillus fumigatus ATCC 90906 after 68 to 72 hrs by Alamar blue assay; format: functional
[5] = tested on: Vero; experiment: Cytotoxicity against African green monkey Vero cells up to 10 ug/ml after 48 hrs by neutral red dye based assay; format: cell-based; conditions: chlorocebus sabaeus
[6] = tested on: Candida albicans; experiment: Antifungal activity against Candida albicans ATCC 90028 after 18 to 24 hrs by Alamar blue assay; format: functional
[7] = tested on: Pichia kudriavzevii; experiment: Antifungal activity against Candida krusei ATCC 6258 after 18 to 24 hrs by Alamar blue assay; format: functional
[8] = tested on: Nakaseomyces glabratus; experiment: Antifungal activity against Candida glabrata ATCC 90030 after 18 to 24 hrs by Alamar blue assay; format: functional
[9] = tested on: Staphylococcus aureus; experiment: Bactericidal activity against Staphylococcus aureus ATCC 29213 by CLSI method; format: functional
[10] = tested on: Staphylococcus aureus; experiment: Anti-bacterial activity against Staphylococcus aureus ATCC 29213 by CLSI method; format: functional
[11] = tested on: Escherichia coli; experiment: Anti-bacterial activity against Escherichia coli ATCC 35218 by CLSI method; format: functional
[12] = tested on: Cryptococcus neoformans; experiment: Antifungal activity against Cryptococcus neoformans ATCC 90113 after 68 to 72 hrs by Alamar blue assay; format: functional
[13] = tested on: Pichia kudriavzevii; experiment: Fungicidal activity against Candida krusei ATCC 6258 after 18 to 24 hrs by Alamar blue assay; format: functional
[14] = tested on: Cryptococcus neoformans; experiment: Fungicidal activity against Cryptococcus neoformans ATCC 90113 after 68 to 72 hrs by Alamar blue assay; format: functional
[15] = tested on: Escherichia coli; experiment: Bactericidal activity against Escherichia coli ATCC 35218 by CLSI method; format: functional
[16] = tested on: Staphylococcus aureus; experiment: Anti-bacterial activity against methicillin-resistant Staphylococcus aureus ATCC 33591 by CLSI method; format: functional
[17] = tested on: Candida albicans; experiment: Fungicidal activity against Candida albicans ATCC 90028 after 18 to 24 hrs by Alamar blue assay; format: functional
[18] = Staphylococcus aureus, ATCC 29213
[19] = Pichia kudriavzevii, ATCC 6258, read-out: IC50
[20] = Staphylococcus aureus, ATCC 33591, read-out: IC50
[21] = Staphylococcus aureus, ATCC 29213, read-out: IC50
[22] = Escherichia coli, ATCC 35218, read-out: IC50

| Structure (SMILES) | IC50 [1] | IC50 [3] | IC50 [4] | Activity [5] | IC50 [6] | MIC ([7]; Pichia kudriavzevii, ATCC 6258) [µg/mL] | IC50 [8] | MBC [9] [µg/mL] | MIC [10, 18] [µg/mL] | IC50 [11] | MIC [12] [µg/mL] | MFC [13] [µg/mL] | MFC [14] [µg/mL] | IC50 [7, 19] [µg/mL] | IC50 [16, 20] [µg/mL] | IC50 [10, 21] [µg/mL] | IC50 [11, 22] [µg/mL] | IC50 [12] [µg/mL] | further results |
| --- | --- | --- | --- | --- | --- | --- | --- | --- | --- | --- | --- | --- | --- | --- | --- | --- | --- | --- | --- |
| CC[C@H](C)[C@H](NC(=O)[C@H](CC1CCCCC1)NC(=O)[C@@H](Cc1c[nH]c2ccccc12)NC(=O)[C@@H](N)CCCN)C(=O)N[C@@H](Cc1cccc2ccccc12)C(=O)N[C@@H](Cc1cn(Cc2ccccc2)cn1)C(N)=O (H-[Orn][dW][Cha]I[1Nal][His(τ-Bzl)]-NH2) | Not Active | Not Active | Not Active | Non-Toxic | Not Active | 10 (≈ 9.92 µM) | Not Active | 20 (≈ 19.8 µM) | 20 (≈ 19.8 µM) | Not Active | 1.25 (≈ 1.24 µM) | – | – | – | – | – | – | – | MBC [2]: 10 µg/mL (≈ 9.92 µM) |
| Cc1ccc(C[C@H](NC(=O)[C@@H](Cc2ccccc2)NC(=O)[C@@H](Cc2c[nH]c3ccccc23)NC(=O)[C@H](N)CCCNC(=N)N)C(=O)N[C@H](Cc2ccccc2)C(=O)N[C@@H](Cc2cn(Cc3ccccc3)cn2)C(N)=O)cc1 (H-[dR][dW][dF][Phe(4-Me)][dF][His(τ-Bzl)]-NH2) | Not Active | Not Active | Not Active | Non-Toxic | Not Active | 20 (≈ 19.2 µM) | Not Active | 20 (≈ 19.2 µM) | 20 (≈ 19.2 µM) | – | – | 20 (≈ 19.2 µM) | 2.5 (≈ 2.4 µM) | – | – | – | – | – | MBC [2]: 20 µg/mL (≈ 19.2 µM); MBC [15]: 20 µg/mL (≈ 19.2 µM); MIC ([16]; Staphylococcus aureus, ATCC 33591): 20 µg/mL (≈ 19.2 µM); MIC ([11]; Escherichia coli, ATCC 35218): 20 µg/mL (≈ 19.2 µM) |
| Cc1ccc(C[C@H](NC(=O)[C@@H](Cc2ccccc2)NC(=O)[C@@H](Cc2c[nH]c3ccccc23)NC(=O)[C@@H](N)CCN)C(=O)N[C@H](Cc2ccccc2)C(=O)N[C@@H](Cc2cn(Cc3ccccc3)cn2)C(N)=O)cc1 (H-[Dab][dW][dF][Phe(4-Me)][dF][His(τ-Bzl)]-NH2) | – | – | – | – | – | – | – | 20 (≈ 20.3 µM) | 20 (≈ 20.3 µM) | – | – | – | 1.25 (≈ 1.27 µM) | – | – | – | – | – | MBC [2]: 20 µg/mL (≈ 20.3 µM) |
| Cc1ccc(C[C@H](NC(=O)[C@@H](Cc2ccccc2)NC(=O)[C@@H](Cc2c[nH]c3ccccc23)NC(=O)[C@@H](N)CCCN)C(=O)N[C@H](Cc2ccccc2)C(=O)N[C@H](CCCN)C(N)=O)cc1 (H-[Orn][dW][dF][Phe(4-Me)][dF][dOrn]-NH2) | Not Active | Not Active | Not Active | Non-Toxic | Not Active | 20 (≈ 22.5 µM) | Not Active | – | – | – | 1.25 (≈ 1.41 µM) | 20 (≈ 22.5 µM) | 1.25 (≈ 1.41 µM) | 9.7 (≈ 10.9 µM) | > 20 | > 20 | > 20 | 0.67 (≈ 0.755 µM) | – |
| CC(C)[C@@H](NC(=O)[C@H](CC1CCCCC1)NC(=O)[C@@H](Cc1c[nH]c2ccccc12)NC(=O)[C@@H](N)CCCN)C(=O)N[C@H](Cc1ccccc1)C(=O)N[C@@H](Cc1cn(Cc2ccccc2)cn1)C(N)=O (H-[Orn][dW][Cha][dV][dF][His(τ-Bzl)]-NH2) | Not Active | – | Not Active | Non-Toxic | – | 20 (≈ 21.2 µM) | Not Active | – | – | Not Active | 1.25 (≈ 1.32 µM) | 20 (≈ 21.2 µM) | – | – | – | – | – | – | MFC [17]: 20 µg/mL (≈ 21.2 µM); MIC ([3]; Mycobacterium intracellulare, ATCC 23068): 20 µg/mL (≈ 21.2 µM); MIC ([6]; Candida albicans, ATCC 90028): 20 µg/mL (≈ 21.2 µM) |
| Cc1ccc(C[C@H](NC(=O)[C@@H](Cc2ccccc2)NC(=O)[C@@H](Cc2c[nH]c3ccccc23)NC(=O)[C@@H](N)CCCN)C(=O)N[C@H](Cc2ccccc2)C(=O)N[C@@H](CCN)C(N)=O)cc1 (H-[Orn][dW][dF][Phe(4-Me)][dF][Dab]-NH2) | Not Active | Not Active | Not Active | Non-Toxic | Not Active | – | Not Active | – | – | – | – | – | – | 14.8 (≈ 16.9 µM) | > 20 | 16.1 (≈ 18.4 µM) | 6 (≈ 6.87 µM) | 0.8 (≈ 0.916 µM) | – |
| Cc1ccc(C[C@H](NC(=O)[C@@H](Cc2ccccc2)NC(=O)[C@@H](Cc2c[nH]c3ccccc23)NC(=O)[C@@H](N)Cc2ccc(N)cc2)C(=O)N[C@H](Cc2ccccc2)C(=O)N[C@@H](Cc2cn(Cc3ccccc3)cn2)C(N)=O)cc1 (H-[Phe(4-NH2)][dW][dF][Phe(4-Me)][dF][His(τ-Bzl)]-NH2) | Not Active | Not Active | Not Active | Non-Toxic | Not Active | – | Not Active | 20 (≈ 19.1 µM) | – | Not Active | – | – | 5 (≈ 4.77 µM) | – | – | – | – | – | IC50 [7]: Not Active; IC50 [16]: Not Active |
| Cc1ccc(C[C@H](NC(=O)[C@@H](Cc2ccccc2)NC(=O)[C@@H](Cc2c[nH]c3ccccc23)NC(=O)[C@@H](N)CCCN)C(=O)N[C@H](Cc2ccccc2)C(=O)N[C@H](CCCNC(=N)N)C(N)=O)cc1 (H-[Orn][dW][dF][Phe(4-Me)][dF][dR]-NH2) | – | Not Active | Not Active | Non-Toxic | Not Active | 20 (≈ 21.5 µM) | Not Active | 20 (≈ 21.5 µM) | 20 (≈ 21.5 µM) | – | 1.25 (≈ 1.35 µM) | 20 (≈ 21.5 µM) | 1.25 (≈ 1.35 µM) | 14 (≈ 15 µM) | > 20 | 13.5 (≈ 14.5 µM) | 4.8 (≈ 5.17 µM) | 0.83 (≈ 0.893 µM) | IC50 ([1]; Pseudomonas aeruginosa, ATCC 27853, read-out: IC50): 15.7 µg/mL (≈ 16.9 µM); MBC [15]: 20 µg/mL (≈ 21.5 µM); MIC ([11]; Escherichia coli, ATCC 35218): 10 µg/mL (≈ 10.8 µM) |
| Cc1ccc(C[C@H](NC(=O)[C@@H](Cc2ccccc2)NC(=O)[C@@H](Cc2c[nH]c3ccccc23)NC(=O)[C@@H](N)CCCN)C(=O)N[C@H](Cc2ccccc2)C(=O)N[C@H](Cc2c[nH]cn2)C(N)=O)cc1 (H-[Orn][dW][dF][Phe(4-Me)][dF][dH]-NH2) | Not Active | Not Active | Not Active | Non-Toxic | Not Active | 10 (≈ 11 µM) | Not Active | – | – | – | 1.25 (≈ 1.37 µM) | 10 (≈ 11 µM) | 1.25 (≈ 1.37 µM) | 5.16 (≈ 5.67 µM) | > 20 | 18 (≈ 19.8 µM) | 12.7 (≈ 14 µM) | 0.8 (≈ 0.879 µM) | – |
| CC[C@H](C)[C@H](NC(=O)[C@H](CC1CCCCC1)NC(=O)[C@H](CC1CCCCC1)NC(=O)[C@@H](N)CCCN)C(=O)N[C@H](Cc1ccccc1)C(=O)N[C@@H](Cc1cn(Cc2ccccc2)cn1)C(N)=O (H-[Orn][Cha][Cha]I[dF][His(τ-Bzl)]-NH2) | Not Active | Not Active | Not Active | Non-Toxic | Not Active | – | Not Active | – | – | – | – | 20 (≈ 21.6 µM) | – | – | – | – | – | – | MBC [15]: 20 µg/mL (≈ 21.6 µM); MIC ([11]; Escherichia coli, ATCC 35218): 20 µg/mL (≈ 21.6 µM) |
| Cc1ccc(C[C@H](NC(=O)[C@@H](Cc2ccccc2)NC(=O)[C@@H](Cc2c[nH]c3ccccc23)NC(=O)[C@@H](N)CCCN)C(=O)N[C@H](Cc2ccccc2)C(=O)N[C@@H](Cc2c[nH]cn2)C(N)=O)cc1 (H-[Orn][dW][dF][Phe(4-Me)][dF]H-NH2) | Not Active | Not Active | Not Active | Non-Toxic | Not Active | – | Not Active | – | – | Not Active | 1.25 (≈ 1.37 µM) | – | 1.25 (≈ 1.37 µM) | – | – | – | – | 0.8 (≈ 0.879 µM) | IC50 [7]: Not Active; IC50 [16]: Not Active; IC50 [10]: Not Active |
